Source: US5328902A, “7-(substituted)-9-[(substituted glycyl)amido]-6-demethyl-6-deoxytetracyclines” (American Cyanamid Co., priority 1992, dated 1994)

Experiments:
[1] = test system: E. coli UBMS 88-1 Tet B; test: microbe, parasite or virus in culture; type: cell-based; settings: E. coli UBMS 88-1 Tet B; 18 hours at 35° C.
[2] = test system: E. coli J3272 Tet sens.; test: MIC, agar dilution; type: cell-based
[3] = test system: E. coli PRP1 Tet A; test: microbe, parasite or virus in culture; type: cell-based; settings: E. coli PRP1 Tet A
[4] = test system: E. coli MC 4100 TNIOC Tet B; test: microbe, parasite or virus in culture; type: cell-based; settings: E. coli MC 4100 TNIOC Tet B
[5] = test system: E. coli J3272 Tet C; test: microbe, parasite or virus in culture; type: cell-based; settings: E. coli J3272 Tet C
[6] = test system: E. coli UBMS 89-1 Tet M; test: microbe, parasite or virus in culture; type: cell-based; settings: E. coli UBMS 89-1 Tet M
[7] = test system: E. coli UBMS 89-2 Tet sens.; test: MIC, agar dilution; type: cell-based; settings: E. coli UBMS 89-2 Tet sens.
[8] = test system: E. coli J2175; test: MIC, agar dilution; type: cell-based; settings: E. coli J2175
[9] = test system: E. coli BAJ9003 IMP MUT; test: microbe, parasite or virus in culture; type: cell-based; settings: E. coli BAJ9003 IMP MUT
[10] = test system: E. coli UBMS 90-4 Tet M; test: microbe, parasite or virus in culture; type: cell-based; settings: E. coli UBMS 90-4 Tet M
[11] = test system: E. coli UBMS 90-5; test: MIC, agar dilution; type: cell-based
[12] = test system: E. coli #311 (MP); test: MIC, agar dilution; type: cell-based; settings: E. coli #311 (MP)
[13] = test system: E. coli ATCC 25922; test: MIC, agar dilution; type: cell-based; settings: E. coli ATCC 25922
[14] = test system: E. coli J3272 Tet D; test: microbe, parasite or virus in culture; type: cell-based; settings: E. coli J3272 Tet D
[15] = test system: S. mariescens FPOR 8733; test: MIC, agar dilution; type: cell-based
[16] = test system: Ps. acruginosa ATCC 27853; test: MIC, agar dilution; type: cell-based; settings: Ps. acruginosa ATCC 27853
[17] = test system: S. aureus NEMC 8769; test: MIC, agar dilution; type: cell-based; settings: S. aureus NEMC 8769
[18] = test system: S. aureus UBMS 88-4; test: MIC, agar dilution; type: cell-based; settings: S. aureus UBMS 88-4
[19] = test system: S. aureus UBMS 88-5 Tet M; test: microbe, parasite or virus in culture; type: cell-based; settings: S. aureus UBMS 88-5 Tet M
[20] = test system: S. aureus UBMS 88-7 Tet K; test: microbe, parasite or virus in culture; type: cell-based; settings: S. aureus UBMS 88-7 Tet K
[21] = test system: S. aureus UBMS 90-1 Tet M; test: microbe, parasite or virus in culture; type: cell-based; settings: S. aureus UBMS 90-1 Tet M
[22] = test system: S. aureus UBMS 90-3; test: MIC, agar dilution; type: cell-based; settings: S. aureus UBMS 90-3
[23] = test system: S. aureus IVES 2943; test: MIC, agar dilution; type: cell-based; settings: S. aureus IVES 2943
[24] = test system: S. aureus ROSE (MP); test: MIC, agar dilution; type: cell-based; settings: S. aureus ROSE (MP)
[25] = test system: S. aureus IVES 1 983; test: MIC, agar dilution; type: cell-based; settings: S. aureus IVES 1 983
[26] = test system: S. aureus ATCC 29213; test: MIC, agar dilution; type: cell-based; settings: S. aureus ATCC 29213
[27] = test system: S. hemolyticus AVHAH 88-3; test: MIC, agar dilution; type: cell-based; settings: S. hemolyticus AVHAH 88-3
[28] = test system: Enterococcus 12201; test: MIC, agar dilution; type: cell-based; settings: Enterococcus 12201
[29] = test system: the ribosome; test: Reversibility of binding: bacterial growth resumes after washing; type: cell-based; settings: bacterial growth resumes when the compound is removed from the cultures by washing
Excerpt: Therefore, the ability of these compounds to inhibit bacterial growth appears to be a direct consequence of its ability to inhibit protein synthesis at the ribosome level.

[30] = test system: tetracycline sensitive and resistant Gram-positive and Gram-negative bacteria; test: In vitro antibacterial activity, summary in words of Table I; type: cell-based
[31] = test system: Wild Type S30 (wild type ribosomes, E. coli strain MRE600, tetracycline sensitive); test: E. coli in vitro protein translation system, wild type S30; settings: for inhibition of protein synthesis occuring on wild type ribosomes: coupled transcription and translation system
[32] = test system: S. aureus UBMS 90-2 Tet M; test: microbe, parasite or virus in culture; type: cell-based; settings: S. aureus UBMS 90-2 Tet M
[33] = test system: S. aureus SMITH (MP); test: MIC, agar dilution; type: cell-based; settings: S. aureus SMITH (MP)
[34] = test system: E. faecalis ATCC 29212; test: MIC, agar dilution; type: cell-based; settings: E. faecalis ATCC 29212

[4S-(4alpha,12aalpha)]-4,7-Bis(dimethylamino)-1,4,4a,5,5a,6,11,12a-octahydro-3,10, 12,12a-tetrahydroxy-1,11-dioxo-9-[[(2-propenylamino)acetyl]amino]-2-naphthacenecarboxamide dihydrochloride
MIC [1]: 1 µg/mL
MIC [2]: 0.5 µg/mL
MIC [3]: 8 µg/mL
MIC [4]: 1 µg/mL
MIC [5]: 1 µg/mL
MIC [6]: 0.5 µg/mL
MIC [7]: 0.5 µg/mL
MIC [8]: 0.5 µg/mL
MIC [9]: 0.12 µg/mL
MIC [10]: 0.5 µg/mL
MIC [11]: 0.5 µg/mL
MIC [12]: 0.5 µg/mL
MIC [13]: 0.5 µg/mL
MIC [14]: 0.25 µg/mL
MIC [15]: 8 µg/mL
MIC [16]: 16 µg/mL
MIC [17]: 0.12 µg/mL
MIC [18]: 0.25 µg/mL
MIC [19]: 0.25 µg/mL
MIC [20]: 8 µg/mL
MIC [21]: 0.5 µg/mL
MIC [22]: 0.25 µg/mL
MIC [23]: 8 µg/mL
MIC [24]: 8 µg/mL
MIC [25]: 8 µg/mL
MIC [26]: 0.25 µg/mL
MIC [27]: 0.5 µg/mL
MIC [28]: 0.25 µg/mL
reversibility of binding to the ribosome [29]: bind reversibly
activity against E. coli tetA, E. coli tetC and E. coli tetD [30]: good activity
in vitro activity against tetracycline resistant strains containing tetM and tetB resistance determinants ([30]; S. aureus UBMS 88-5, 90-1, 90-2, E. coli UBMS 89-1, 90-4, 88-1, TN10C tetB): excellent
activity against recently isolated bacteria from clinical sources compared with minocycline ([30]; clinical isolates): superior to that of minocycline
activity against susceptible strains compared with minocycline ([30]; susceptible strains): equallyas effective as minocycline
% Inhibition Wild Type S30 ([31]; Conc. 0.06 mg/ml): 93%
% Inhibition Wild Type S30 ([31]; Conc. 1.0 mg/ml): 99%
inhibition of protein synthesis occuring on wild type ribosomes [31]: effectively inhibit protein synthesis

[4S-(4alpha,12aalpha)]-4,7-Bis(dimethylamino)-1,4,4a,5,5a,6,11,12a-octahydro-3,10, 12,12a-tetrahydroxy-9-[[[(3-methoxypropyl)amino]acetyl]amino]-1,11-dioxo-2-naphthacenecarboxamide dihydrochloride
MIC [2]: 1 µg/mL
MIC [3]: 4 µg/mL
MIC [4]: 2 µg/mL
MIC [5]: 1 µg/mL
MIC [6]: 2 µg/mL
MIC [7]: 1 µg/mL
MIC [8]: 1 µg/mL
MIC [9]: 0.12 µg/mL
MIC [10]: 1 µg/mL
MIC [11]: 1 µg/mL
MIC [12]: 1 µg/mL
MIC [13]: 1 µg/mL
MIC [14]: 0.5 µg/mL
MIC [15]: 16 µg/mL
MIC [16]: 32 µg/mL
MIC [17]: 0.25 µg/mL
MIC [18]: 1 µg/mL
MIC [19]: 0.5 µg/mL
MIC [20]: 8 µg/mL
MIC [21]: 2 µg/mL
MIC [22]: 0.5 µg/mL
MIC [32]: 0.5 µg/mL
MIC [23]: 16 µg/mL
MIC [24]: 16 µg/mL
MIC [33]: 0.5 µg/mL
MIC [25]: 16 µg/mL
MIC [26]: 1 µg/mL
MIC [27]: 2 µg/mL
MIC [28]: 0.5 µg/mL
MIC [34]: 0.25 µg/mL
reversibility of binding to the ribosome [29]: bind reversibly
% Inhibition Wild Type S30 ([31]; Conc. 0.06 mg/ml): 88%
inhibition of protein synthesis occuring on wild type ribosomes [31]: effectively inhibit protein synthesis

[4S-(4alpha,12aalpha)]-9-[[[(2,2-Diethoxyethyl)amino]acetyl]amino]-4,7-bis(dimethylamino)-1,4,4a,5,5a,6,11,12a-octahydro-3,10, 12,12a-tetrahydroxy-1,11-dioxo-2-naphthacenecarboxamide dihydrochloride [Compound C]
MIC [1]: 16 µg/mL
MIC [2]: 8 µg/mL
MIC [3]: > 32 µg/mL
MIC [4]: 8 µg/mL
MIC [5]: 16 µg/mL
MIC [6]: 4 µg/mL
MIC [7]: 8 µg/mL
MIC [8]: 8 µg/mL
MIC [9]: 0.5 µg/mL
MIC [10]: 4 µg/mL
MIC [11]: 8 µg/mL
MIC [12]: 8 µg/mL
MIC [13]: 8 µg/mL
MIC [14]: 4 µg/mL
MIC [15]: > 32 µg/mL
MIC [16]: > 32 µg/mL
MIC [17]: 0.25 µg/mL
MIC [18]: 1 µg/mL
MIC [19]: 1 µg/mL
MIC [20]: 8 µg/mL
MIC [21]: 1 µg/mL
MIC [22]: 0.5 µg/mL
MIC [32]: 1 µg/mL
MIC [23]: 8 µg/mL
MIC [24]: 16 µg/mL
MIC [33]: 0.5 µg/mL
MIC [25]: 16 µg/mL
MIC [26]: 1 µg/mL
MIC [27]: 2 µg/mL
MIC [28]: 1 µg/mL
MIC [34]: 0.5 µg/mL
reversibility of binding to the ribosome [29]: bind reversibly
% Inhibition Wild Type S30 ([31]; Conc. 0.06 mg/ml): 88%
% Inhibition Wild Type S30 ([31]; Conc. 1.0 mg/ml): 98%
inhibition of protein synthesis occuring on wild type ribosomes [31]: effectively inhibit protein synthesis
